Test [1] deals with VDR, PPARα, PPARγ, ERα, ERβ, FXR, AhR, mCAR. Kind of test: Nuclear receptor panel screening, luciferase reporter assays in HepG2 cells. The test is classed as cell-based. The conditions noted are these: HepG2, 10 μM, 24 h. How it is done:
To examine the specificity of compound 40 (and as a control compound 46) toward other nuclear receptors, we assessed their activity in activating eight critical nuclear receptors with cellular reporter assays at saturating concentrations (10 μM). We chose nuclear receptors that are either known to directly or indirectly regulate metabolic processes in the liver, including vitamin D receptor (VDR), peroxisome proliferator-activated receptors α and γ (PPAR α and γ), estrogen receptor α and β (ERα and β) and farnesoid X receptor (FXR) or are relevant in drug metabolism such as aryl hydrocarbon receptor (AhR) and the mice constitutive androstane receptor (mCAR).
For nuclear receptor panel screening, the HepG2 cell line (obtained by American Type Culture Collection) was maintained in DMEM (Gibco) supplemented with 10% FBS+ 1% nonessential amino acids medium and incubated at 37 °C. Plasmids for mouse constitutive androstane receptor (mCAR) and its luciferase gene reporter construct p2B6-luc have been described in Mejdrová et al.[24] Other luciferase reporter constructs have been described in Stefela et al.[25] The transient transfection experiments were performed on 48-well format plates 24 h after cell seeding (1.1 × 10^5 per well). The Lipofectamine 3000 transfection reagent was used according to the manufacturer’s instructions. […]
In general terms: In a reporter assay the amount or activity of a reporter protein is the signal.

Test [2] deals with Hep3B cells. Briefly: Oxidative stress in Hep3B cells (CellROX Green Reagent, FACS). The class given is cell-based, human. The conditions noted are these: 3 days, 3 μM LXR agonist + 1 μM sorafenib. How it is done:
We previously described that our established lipotoxic therapy triggers oxidative stress and an ER stress response, which finally leads to apoptosis in tumor cells.[6]
The determination of oxidative stress levels was performed using CellROX Green Reagent from Thermo Fischer Scientific in Hep3B cells. Measurement of green fluorescence was performed using the FACS LSRFortessa cell analyzer (BD Bioscience, Flow Cytometry Core Facility Tuebingen) after 3 days of treatment. Data were collected using DIVA software (v9.0.1).

Another test addresses T1, LXRβ LBD (GST) (Homo sapiens, UniProt P55055).
T1 construct: 5 nM LXRα LBD (GST); 10 nM LXRβ LBD (GST); purchased ThermoFisher Scientific PV4658
T1 sequence (P55055 222-460 limits assumed): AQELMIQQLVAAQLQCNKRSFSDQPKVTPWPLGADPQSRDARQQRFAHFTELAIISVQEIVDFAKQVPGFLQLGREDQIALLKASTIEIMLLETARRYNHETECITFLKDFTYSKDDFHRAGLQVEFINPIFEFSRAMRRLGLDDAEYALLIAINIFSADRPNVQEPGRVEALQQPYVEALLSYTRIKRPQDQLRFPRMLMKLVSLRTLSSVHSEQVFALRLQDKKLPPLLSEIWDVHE
Briefly: Time-resolved LXR FRET assay (LanthaScreen TR-FRET LXRβ assay kit). The test is classed as biochemical. The settings on record: 10 nM LXRβ LBD (GST), read after 6 h; R^2 of fit given; read-out: TR-FRET activity (EC50) LXRβ.

The test system of test [3] is SOD1, GADD34 and CHOP (GADD153). Kind of test: Western blot of oxidative stress and ER stress response factors in Hep3B cells. The class given is cell-based, human. The settings on record: 3 days, with 2 μM sorafenib. How it is done:
Proteins were extracted from cells using RIPA buffer, separated by SDS-PAGE, and transferred to PVDF membranes (Amersham Hybond ECL). For protein detection, membranes were incubated with antibodies against LXRα (Novus Biologicals, NBP2–17186, dilution: 1:1000), LXRβ (Cell Signaling Technology, 13519S, clone: D6M9D, dilution: 1:1000), CHOP (Cell Signaling, 2895 (L63F7), dilution: 1:1000), GADD34 (Proteintech, 10449–1-AP, dilution: 1:1000), SOD1 (ThermoFisher Scientific, MA1–105, clone: 8B10, dilution: 1:1000), α-tubulin (Cell Signaling, 2125 clone: 11H10, dilution: 1:5000), and vinculin (Sigma-Aldrich V9131, clone: hVIN-1, dilution: 1:5000) and visualized using the ChemiDoc MP imaging system (Bio-Rad, ImageLab v5.2.1).

Test [4] has as its system Hep3B cells. Kind of test: Cell viability analysis in Hep3B cells (CellTiter-Glo). The class given is cell-based, human. The conditions noted are these: 5d. How it is done:
To determine the therapeutic efficacy of compound 40 in HCC cells, we next tested its effect on Hep3B cell viability in combination with the DFG-out Raf inhibitor sorafenib (2 μM).
For organoid treatment studies, digestion of organoids was performed using TrypLE Express (Gibco) supplemented with 100 μg/mL DNaseI and 10.5 μM Y-27632 dihydrochloride (Invitrogen) at 37 °C, and afterward, single-cells were plated in white 96 well plates (Sarstedt) in a mixture of 10% Matrigel (Growth Factor Reduced (GFR) Matrigel, Corning) in culture medium. Cell viability was determined after 5 days of treatment using the CellTiter-Glo 3D Cell Viability Assay Kit (Promega). Cell viability of Hep3B, AML12, and BNL CL.2 cells was determined after 5 days of treatment in white 96 well plates (Sarstedt) using the CellTiter-Glo 2.0 Cell Viability Assay Kit (Promega). AML12 and BNL CL.2 cells were also obtained from the American Type Culture Collection. The luminescence signal was measured using an […] M PLEX plate reader (Tecan) and the Tecan i-control software (v3.9.1). Sodium oleate (Selleckchem) was dissolved in methanol and added to cells at a final concentration of 200 μM.
(ATP-based viability assays read luminescence as a measure of living cells.)

A word on the EC50: it is the concentration giving half of the maximal effect. As for `O=C1C(Nc2ccc(N3CCCCC3)cc2)=C(c2ccccc2)C(=O)N1Cc1ccccc1` [Compound 40, 1-Benzyl-3-phenyl-4-((4-(piperidin-1-yl)phenyl)amino)-1H-pyrrole-2,5-dione], in test [1], the “activation of eight other nuclear receptors” value was “no relevant activation”. Also, in the test with Hep3B cells [2], the “oxidative stress induction in combination with sorafenib” value was “more efficient in inducing oxidative stress than GW3965 (2), GSK3987 (3), and AZ876 (4)”. In addition, the half-maximal effective concentration (EC50) on LXRβ LBD (GST) amounted to 266 nM. The “induction of SOD1, GADD34 and CHOP” value in test [3] is given as “strong induction of all factors”. For the same compound, the “effect of sodium oleate on efficacy of the combination with sorafenib” value in the test on Hep3B cells [4] (2 μM sorafenib ± 200 μM sodium oleate) is given as “strongly diminished the therapeutic efficacy”. Moreover, the “therapeutic effect on cell viability, monotherapy” value in the test with Hep3B cells [4] (without sorafenib) is on record as “did not show a significant therapeutic effect”.

These data come from article PMC11997999, “Uncovering α-Selectivity for Liver X Receptor Agonists for Lipotoxic Cancer Therapies” (Journal of Medicinal Chemistry, 2025).
